Measured values: patent US9211291B2, “Treatment regimen utilizing neratinib for breast cancer” (WYETH LLC, priority 2009, dated 2015)

Legend:
[1] = tested on: metastatic erbB-2 positive breast cancer; assay: phase 2 trial of neratinib as a single agent in subjects with metastatic erbB-2 positive breast cancer; type: in vivo, human; details: for median progression-free survival (PFS) / overall response rate (ORR): independent radiology assessment, preliminary data
From the text: Neratinib as a single agent has been studied in a phase 2 trial in subjects with metastatic erbB-2 positive breast cancer.

[2] = tested on: erbB-1- and/or erbB 2-expressing carcinoma cell lines; details: read-out: cellular IC50, preclinical data; cited from earlier work
[3] = Arm A: subjects with prior trastuzumab treatment
[4] = Arm B: subjects without prior exposure to trastuzumab

With CCOc1cc2ncc(C#N)c(Nc3ccc(OCc4ccccn4)c(Cl)c3)c2cc1NC(=O)/C=C/CN(C)C [neratinib, (2E)-N-[4-[[3-chloro-4-[(pyridin-2-yl)methoxy]phenyl]amino]-3-cyano-7-ethoxyquinolin-6-yl]-4-(dimethylamino)but-2-enamide] the “median progression-free survival (PFS)” value [1, 3] was 23 weeks, the “overall response rate (ORR)” value [1, 3] was 26% and the “median progression-free survival (PFS)” value [1, 4] was 40 weeks. For the same compound, the “overall response rate (ORR)” value [1, 4] was 57%, the main adverse event ([1]; generally well manageable with medication, treatment interruption, or dose modification) was “diarrhea” and the “other common adverse events” value ([1]; human, in vivo) was “nausea, vomiting, fatigue, and anorexia”. The IC50 [2] was < 0.1 µM.
